From the CheMixHub viscosity set
Where “and” joins values, the source holds several entries; their conditions need not be identical. Equal values may be shown once.

Experiment: xn = mol fraction of the nth substance listed

BrC(Br)Br + COC(C)=O
viscosity [mPa·s], 101 kPa
Conditions	x1 = 0.0997	x1 = 0.1981	x1 = 0.2985	x1 = 0.406	x1 = 0.5052	x1 = 0.6046	x1 = 0.7016	x1 = 0.7984	x1 = 0.89
298.15 K	0.4806	–	0.7148	0.8716	1.039	1.215	1.403	1.6	1.783
303.15 K	0.4671	0.5871	0.6791	0.8247	0.9763	1.141	1.297	1.5	1.671
308.15 K	0.4465	0.5511	0.6431	0.7797	0.9244	1.07	1.207	1.405	1.57
313.15 K	0.4263	0.511	0.6007	0.7368	0.8701	1.009	1.141	1.317	1.471

CCCCCCCCO + CCO
viscosity [mPa·s], 101 kPa
Conditions	298.15 K	303.15 K	308.15 K	318.15 K
x2 = 0.05	6.909	–	4.994	3.689
x2 = 0.1	6.475	–	4.73	3.51
x2 = 0.1301	–	5.471	–	–
x2 = 0.15	6.058	–	4.466	3.331
x2 = 0.2	5.658	–	4.204	3.154
x2 = 0.243	–	4.607	–	–
x2 = 0.25	5.273	–	3.945	2.979
x2 = 0.3	4.903	–	3.69	2.805
x2 = 0.3339	–	4.001	–	–
x2 = 0.35	4.546	–	3.441	2.634
x2 = 0.4	4.202	–	3.198	2.466
x2 = 0.45	3.871	–	2.961	2.301
x2 = 0.5	3.552	–	2.733	2.14
x2 = 0.5477	–	2.922	–	–
x2 = 0.55	3.245	–	2.512	1.982
x2 = 0.6	2.951	–	2.3	1.828
x2 = 0.65	2.668	–	2.096	1.678
x2 = 0.6979	–	2.169	–	–
x2 = 0.7	2.398	–	1.901	1.532
x2 = 0.75	2.141	–	1.714	1.391
x2 = 0.8	1.897	–	1.535	1.254
x2 = 0.8094	–	1.689	–	–
x2 = 0.85	1.668	–	1.364	1.121
x2 = 0.8948	–	1.362	–	–
x2 = 0.9	1.453	–	1.199	0.9926
x2 = 0.95	1.255	–	1.04	0.8687
x2 = 0.9602	–	1.121	–	–

CCCCCCCCO + CCOC(C)=O
viscosity [mPa·s]
Conditions	298.15 K	303.15 K	308.15 K	313.15 K
101 kPa, x1 = 0.0646	0.512	0.484	0.455	0.429
101 kPa, x1 = 0.1344	0.629	0.589	0.55	0.513
101 kPa, x1 = 0.2103	0.783	0.727	0.673	0.623
101 kPa, x1 = 0.2928	0.991	0.911	0.834	0.766
101 kPa, x1 = 0.3832	1.279	1.164	1.054	0.958
101 kPa, x1 = 0.4823	1.689	1.519	1.36	1.223
101 kPa, x1 = 0.5917	2.298	–	1.806	1.605
101 kPa, x1 = 0.713	3.246	2.844	2.482	2.179
101 kPa, x1 = 0.8483	4.801	4.144	3.563	3.083
101.33 kPa, x2 = 0.141	4.383	3.809	3.324	–
101.33 kPa, x2 = 0.2701	2.825	2.512	2.215	–
101.33 kPa, x2 = 0.3878	1.985	1.777	1.596	–
101.33 kPa, x2 = 0.4964	1.449	1.292	1.152	–
101.33 kPa, x2 = 0.5965	1.088	0.992	0.907	–
101.33 kPa, x2 = 0.6891	0.841	0.798	0.724	–
101.33 kPa, x2 = 0.7641	0.712	0.653	0.606	–
101.33 kPa, x2 = 0.8552	0.585	0.542	0.51	–
101.33 kPa, x2 = 0.9301	0.496	0.468	0.446	–

CCN(CC)CCO.Cl + OCC(O)CO
101 kPa, x1 = 0.333
Conditions	viscosity [mPa·s]
296.97 K	433.4
298.15 K	513.1
302.02 K	339.9
303.15 K	351.5
306.82 K	263.5
308.15 K	251.3
312.13 K	195.5
313.15 K	182.9
317.31 K	153
318.15 K	138
322.61 K	110.5
323.15 K	104.2

BrC(Br)Br + CCCCCCCO
viscosity [mPa·s], 101.3 kPa
Conditions	x1 = 0.102	x1 = 0.204	x1 = 0.301	x1 = 0.405	x1 = 0.503	x1 = 0.597	x1 = 0.699	x1 = 0.801	x1 = 0.901
298.15 K	5.359	4.647	4.131	3.544	3.133	2.755	2.44	2.17	1.982
303.15 K	4.524	3.988	3.547	3.093	2.773	2.457	2.199	1.992	1.844
308.15 K	3.863	3.422	3.084	2.712	2.461	2.205	1.99	1.822	1.713

NCCOCCO + O
viscosity [mPa·s], 101.33 kPa
Conditions	298.15 K	313.15 K	323.15 K
x1 = 0.0552	2.4	1.452	1.16
x1 = 0.1002	3.874	2.419	1.857
x1 = 0.1447	6.344	3.715	2.737
x1 = 0.2249	11.4	6.182	4.438
x1 = 0.2997	16.21	8.343	5.773
x1 = 0.3995	21.35	10.7	7.293
x1 = 0.5392	25.2	12.28	8.273
x1 = 0.6075	26.8	13.19	8.903
x1 = 0.7021	27.72	13.65	9.182
x1 = 0.8071	27.7	13.76	9.315
x1 = 0.9024	27.4	13.65	9.257

CC(C)(C)N + COCCO
308.15 K, 101 kPa
Conditions	viscosity [mPa·s]
x2 = 0.13	0.5293
x2 = 0.2516	0.6631
x2 = 0.3656	0.7913
x2 = 0.4727	0.9167
x2 = 0.5735	1.035
x2 = 0.6668	1.083
x2 = 0.7583	1.115
x2 = 0.8432	1.152
x2 = 0.9237	1.187

C=Cc1ccccc1 + CCCCCCCCCCCC
viscosity [mPa·s], 101.33 kPa
Conditions	x1 = 0.0973	x1 = 0.2027	x1 = 0.2991	x1 = 0.4009	x1 = 0.5183	x1 = 0.5987	x1 = 0.699	x1 = 0.8005	x1 = 0.8996
298.15 K	1.243	1.143	1.062	0.99	0.909	0.866	0.822	0.774	0.739
303.15 K	1.151	1.051	0.985	0.92	0.847	0.81	0.769	0.722	0.688
308.15 K	1.059	0.98	0.915	0.854	0.791	0.76	0.724	0.691	0.656

CC1CCCC(O)C1 (stereo not drawn) + c1ccccc1
293.15 K, 101 kPa
Conditions	viscosity
x2 = 0.3	4.2 mPa·s
x2 = 0.5	2.1 mPa·s
x2 = 0.6	1.6 mPa·s
x2 = 0.7	1.5 mPa·s
x2 = 0.8	1.2 mPa·s and 1.1 mPa·s

CC(=O)c1ccc(Cl)cc1 + CCCCCCO
303.15 K, 101 kPa
Conditions	viscosity [mPa·s]
x1 = 0.0521	3.667
x1 = 0.1009	3.442
x1 = 0.1668	3.212
x1 = 0.2325	2.982
x1 = 0.3002	2.791
x1 = 0.4028	2.603
x1 = 0.5001	2.511
x1 = 0.5708	2.462
x1 = 0.641	2.437
x1 = 0.6998	2.428
x1 = 0.7655	2.448
x1 = 0.8376	2.502
x1 = 0.9007	2.589
x1 = 0.9513	2.717

BrC(Br)Br + N#CCc1ccccc1
298.15 K, 101 kPa
Conditions	viscosity [mPa·s]
x1 = 0.1271	1.937
x1 = 0.2393	2
x1 = 0.3546	2.087
x1 = 0.5011	2.112
x1 = 0.601	2.117
x1 = 0.6932	2.08
x1 = 0.7999	2.027
x1 = 0.889	1.966

C=Cc1ccccc1 + C1COCCO1
viscosity [mPa·s], 101.33 kPa
Conditions	x1 = 0.1012	x1 = 0.2139	x1 = 0.2989	x1 = 0.3996	x1 = 0.5054	x1 = 0.6016	x1 = 0.7019	x1 = 0.805	x1 = 0.9021
298.15 K	1.119	1.069	1.043	1.005	0.966	0.929	0.891	0.853	0.819
303.15 K	1.034	0.987	0.959	0.929	0.893	0.873	0.829	0.795	0.766
308.15 K	0.957	0.915	0.889	0.862	0.83	0.802	0.774	0.744	0.716

CCCCCCCCO + CCCCCO
101.33 kPa
Conditions	viscosity [mPa·s]
293.15 K, x2 = 0.1991	7.947
293.15 K, x2 = 0.3363	7.158
293.15 K, x2 = 0.4792	6.397
293.15 K, x2 = 0.6294	5.561
293.15 K, x2 = 0.7214	5.182
293.15 K, x2 = 0.911	4.341
298.15 K, x2 = 0.0849	7.229
298.15 K, x2 = 0.2664	6.385
298.15 K, x2 = 0.3696	5.903
298.15 K, x2 = 0.6046	4.921
298.15 K, x2 = 0.708	4.524
298.15 K, x2 = 0.8575	3.97

CC12CC3CC(C1)CC(C)(C3)C2 + CCCCCCCCCC
viscosity [mPa·s], 100 kPa
Conditions	x1 = 0.1028	x1 = 0.1981	x1 = 0.3019	x1 = 0.3998	x1 = 0.4996	x1 = 0.6018	x1 = 0.6968	x1 = 0.7904	x1 = 0.895
293.15 K	1.016	1.12	1.253	1.402	1.581	1.828	2.125	2.491	3.031
298.15 K	0.942	1.035	1.154	1.287	1.445	1.665	1.926	2.247	2.719
303.15 K	0.877	0.961	1.069	1.187	1.328	1.526	1.757	2.04	2.456
313.15 K	0.767	0.837	0.926	1.023	1.137	1.295	1.48	1.704	2.032
323.15 K	0.672	0.729	0.797	0.879	0.972	1.098	1.237	1.421	1.676

BrC(Br)Br + CCCO
viscosity [mPa·s], 101 kPa
Conditions	x1 = 0.0998	x1 = 0.1979	x1 = 0.2988	x1 = 0.4005	x1 = 0.5	x1 = 0.5953	x1 = 0.69	x1 = 0.7999	x1 = 0.9007
298.15 K	1.964	1.932	1.879	1.813	1.782	1.767	1.768	1.786	1.853
303.15 K	1.737	1.716	1.681	1.647	1.623	1.621	1.632	1.674	1.734
308.15 K	1.543	1.528	1.506	1.481	1.481	1.49	1.505	1.559	1.618
313.15 K	1.363	1.363	1.354	1.339	1.352	1.379	1.393	1.448	1.515

C=Cc1ccccc1 + CCCCCCO
viscosity [mPa·s], 101.33 kPa
Conditions	x1 = 0.0998	x1 = 0.2024	x1 = 0.3078	x1 = 0.4006	x1 = 0.5007	x1 = 0.5988	x1 = 0.6993	x1 = 0.7986	x1 = 0.8985
298.15 K	3.131	2.522	1.956	1.613	1.293	1.134	0.972	0.891	0.808
303.15 K	2.773	2.177	1.703	1.446	1.154	1.051	0.89	0.84	0.747
308.15 K	2.296	1.88	1.497	1.298	1.114	1.008	0.86	0.81	0.693

O=C([O-])CC(O)(CC(=O)[O-])C(=O)[O-].[NH4+].[NH4+].[NH4+] + O
viscosity, 101 kPa
Conditions	298.15 K	308.15 K	318.15 K
x1 = 0.004	0.9957 mPa·s	0.814 mPa·s	0.685 mPa·s
x1 = 0.007	1.13 mPa·s	0.923 mPa·s	0.7741 mPa·s
x1 = 0.01	1.283 mPa·s and 1.49 mPa·s	1.048 mPa·s and 1.211 mPa·s	0.8784 mPa·s and 1.01 mPa·s
